Legend:
TNKS2 = molecular target: T1, TNKS2 (Homo sapiens, UniProt Q9H2K2); assay: Modified TNKS2 Assay 2 (auto-parsylation, [3H]-NAD+ SPA); assay type: biochemical; conditions: 6 nM TNKS2, 96 well
T1 sequence (Q9H2K2 1-1166): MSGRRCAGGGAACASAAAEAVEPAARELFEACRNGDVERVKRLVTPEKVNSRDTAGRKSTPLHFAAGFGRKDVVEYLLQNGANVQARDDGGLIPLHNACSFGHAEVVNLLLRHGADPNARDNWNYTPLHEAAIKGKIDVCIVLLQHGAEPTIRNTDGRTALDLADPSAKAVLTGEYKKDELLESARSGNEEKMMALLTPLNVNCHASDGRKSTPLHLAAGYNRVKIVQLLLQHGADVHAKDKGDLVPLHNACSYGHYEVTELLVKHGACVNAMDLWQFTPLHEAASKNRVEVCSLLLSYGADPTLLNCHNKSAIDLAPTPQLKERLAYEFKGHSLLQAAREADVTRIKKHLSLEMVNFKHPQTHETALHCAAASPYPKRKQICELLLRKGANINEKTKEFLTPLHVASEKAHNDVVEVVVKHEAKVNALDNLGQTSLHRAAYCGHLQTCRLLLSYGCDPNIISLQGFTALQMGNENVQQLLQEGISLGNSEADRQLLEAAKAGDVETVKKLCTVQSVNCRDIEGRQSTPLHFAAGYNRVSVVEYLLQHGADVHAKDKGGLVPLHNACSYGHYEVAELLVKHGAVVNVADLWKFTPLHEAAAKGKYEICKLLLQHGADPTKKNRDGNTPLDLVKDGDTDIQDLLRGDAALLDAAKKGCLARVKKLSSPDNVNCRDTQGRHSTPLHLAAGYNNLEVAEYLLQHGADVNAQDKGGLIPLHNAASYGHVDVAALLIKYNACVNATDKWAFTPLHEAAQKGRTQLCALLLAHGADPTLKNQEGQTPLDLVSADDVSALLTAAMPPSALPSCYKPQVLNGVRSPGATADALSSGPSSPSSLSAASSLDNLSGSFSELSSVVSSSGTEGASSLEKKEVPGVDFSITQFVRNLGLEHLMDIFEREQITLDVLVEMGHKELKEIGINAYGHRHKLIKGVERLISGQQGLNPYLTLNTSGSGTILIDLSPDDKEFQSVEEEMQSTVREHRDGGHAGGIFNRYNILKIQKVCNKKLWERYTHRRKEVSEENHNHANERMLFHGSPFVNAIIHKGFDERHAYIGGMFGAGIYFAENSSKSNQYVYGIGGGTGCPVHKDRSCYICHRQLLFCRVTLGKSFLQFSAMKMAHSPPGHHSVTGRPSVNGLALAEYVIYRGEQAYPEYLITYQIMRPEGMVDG

[1] = system: wildtype Wnt signaling cascade; assay: HEK293 TOP Assay (Super TopFlash luciferase reporter, Wnt-3a stimulated); assay type: cell-based; conditions: Homo sapiens, HEK293, 16 h
Outline: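 HEK293 cells stably carrying Super TopFlash (TOP) or FOP reporter, stimulated with recombinant human Wnt-3a (2500–5 ng/ml, two-fold steps). Both lines incubated in parallel with compound from 50 μM to 15 nM (3.16-fold) in CAFTY buffer pH 7.4 with 2 mM Ca2+ and 0.01% BSA; selectivity judged TOP vs FOP.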

[2] = HEK293 TOP reporter cell line, Wnt-3a at EC50, 16 hours incubation, compound dilution series 50 μM to 15 nM
[3] = HEK293 TOP reporter cells, Wnt3a at EC50, 16 hours, luciferase

IC50 (TNKS2) [nM]	IC50 [1, 2] [nM]	SMILES	IC50 [1, 3] [nM]
200	460	O=C(Nc1ccc(NC(=O)c2nc[nH]c2C(=O)NCC2CCOCC2)cc1)c1ccc(F)cc1Cl [Example 397, N^5-{4-[(2-chloro-4-fluorobenzoyl)amino]phenyl}-N^4-(tetrahydro-2H-pyran-4-ylmethyl)-1H-imidazole-4,5-dicarboxamide]	
1300	1800	CNC(=O)c1nc[nH]c1C(=O)Nc1ccc(NC(=O)c2c(F)ccc(F)c2Cl)cc1 [Example 374, N^5-{4-[(2-chloro-3,6-difluorobenzoyl)amino]phenyl}-N^4-methyl-1H-imidazole-4,5-dicarboxamide]	
7900	50000	CNC(=O)c1nc[nH]c1C(=O)Nc1ccc(NC(=O)c2cc(F)ccc2OC)cc1 [Example 364, N^5-{4-[(5-fluoro-2-methoxybenzoyl)amino]phenyl}-N^4-methyl-1H-imidazole-4,5-dicarboxamide]	
80	560	CN1CCN(CC(C)(C)CNC(=O)c2nc[nH]c2C(=O)Nc2ccc(NC(=O)c3ccc(F)cc3Cl)cc2)CC1 [Example 415, N^5-{4-[(2-chloro-4-fluorobenzoyl)amino]phenyl}-N^4-[2,2-dimethyl-3-(4-methylpiperazin-1-yl)propyl]-1H-imidazole-4,5-dicarboxamide]	
310	10	O=C(Nc1ccc(NC(=O)c2[nH]cnc2C(=O)NCCN2CCCCC2)cc1)c1ccc(F)cc1I [Example 62, N^5-{4-[(4-fluoro-2-iodobenzoyl)amino]phenyl}-N^4-[2-(piperidin-1-yl)ethyl]-1H-imidazole-4,5-dicarboxamide]	
60	300	CN1CCCC(CNC(=O)c2[nH]cnc2C(=O)Nc2ccc(NC(=O)c3ccc(F)cc3Cl)cc2)C1 (stereo not shown) [Example 298, N^4-{4-[(2-chloro-4-fluorobenzoyl)amino]phenyl}-N^5-[(1-methylpiperidin-3-yl)methyl]-1H-imidazole-4,5-dicarboxamide]	
110	340	COC(=O)c1nc[nH]c1C(=O)Nc1ccc(NC(=O)c2ccc(F)cc2Cl)c(F)c1 [Example 71, methyl 5-({4-[(2-chloro-4-fluorobenzoyl)amino]-3-fluorophenyl}carbamoyl)-1H-imidazole-4-carboxylate]	
210	22200	CCNC(=O)c1nc[nH]c1C(=O)Nc1ccc(NC(=O)c2ncccc2Cl)cc1 [Example 261, N^5-(4-{[(3-chloropyridin-2-yl)carbonyl]amino}phenyl)-N^4-ethyl-1H-imidazole-4,5-dicarboxamide]	
570	120	CNC(=O)c1nc[nH]c1C(=O)Nc1ccc(NC(=O)c2ccc(F)cc2Br)cc1 [Example 56, N^5-{4-[(2-bromo-4-fluorobenzoyl)amino]phenyl}-N^4-methyl-1H-imidazole-4,5-dicarboxamide]	
100	260	CNC(=O)c1nc[nH]c1C(=O)Nc1ccc(NC(=O)c2cc(F)ccc2Cl)cc1 [Example 361, N^5-{4-[(2-chloro-5-fluorobenzoyl)amino]phenyl}-N^4-methyl-1H-imidazole-4,5-dicarboxamide]	
> 10000	12400	CNC(=O)c1nc[nH]c1C(=O)Nc1ccc(NC(=O)c2cccc(F)c2OC)cc1 [Example 367, N^5-{4-[(3-fluoro-2-methoxybenzoyl)amino]phenyl}-N^4-methyl-1H-imidazole-4,5-dicarboxamide]	
30	360	CN(C)CCNC(=O)c1nc[nH]c1C(=O)Nc1ccc(NC(=O)c2ccc(F)cc2Cl)c(F)c1 [Example 73, N^5-{4-[(2-chloro-4-fluorobenzoyl)amino]-3-fluorophenyl}-N^4-[2-(dimethylamino)ethyl]-1H-imidazole-4,5-dicarboxamide]	
150	800	O=C(Nc1ccc(NC(=O)c2[nH]cnc2C(=O)NCCc2ccccn2)cc1)c1ccc(F)cc1Cl [Example 387, N^5-{4-[(2-chloro-4-fluorobenzoyl)amino]phenyl}-N^4-[2-(pyridin-2-yl)ethyl]-1H-imidazole-4,5-dicarboxamide]	
> 10000	2150	CCc1nc(C(=O)Nc2ccc(NC(=O)c3ccc(F)cc3Cl)cc2)c(C(=O)NC)[nH]1 [Example 68, N^4-{4-[(2-chloro-4-fluorobenzoyl)amino]phenyl}-2-ethyl-N^5-methyl-1H-imidazole-4,5-dicarboxamide]	
> 10000	1450	CNC(=O)c1nc[nH]c1C(=O)Nc1ccc(NC(=O)c2cc(OC(F)(F)F)ccc2Br)cc1 [Example 64, N^5-(4-{[2-bromo-5-(trifluoromethoxy)benzoyl]amino}phenyl)-N^4-methyl-1H-imidazole-4,5-dicarboxamide]	
10	160	Cc1cc(NC(=O)c2[nH]cnc2C(=O)NCCN2CCCCC2)ccc1NC(=O)c1ccc(F)cc1Cl [Example 85, N^5-{4-[(2-chloro-4-fluorobenzoyl)amino]-3-methylphenyl}-N^4-[2-(piperidin-1-yl)ethyl]-1H-imidazole-4,5-dicarboxamide]	
1700	1450	CNC(=O)c1nc[nH]c1C(=O)Nc1ccc(NC(=O)c2c(C)cccc2Cl)cc1 [Example 343, N^5-{4-[(2-chloro-6-methylbenzoyl)amino]phenyl}-N^4-methyl-1H-imidazole-4,5-dicarboxamide]	
30	70	Cc1nc(C(=O)Nc2ccc(NC(=O)c3ccc(F)cc3Cl)cc2)c(C(=O)NCCN2CCCCC2)[nH]1 [Example 67, N^4-{4-[(2-chloro-4-fluorobenzoyl)amino]phenyl}-2-methyl-N^5-[2-(piperidin-1-yl)ethyl]-1H-imidazole-4,5-dicarboxamide]	
10	40	CS(=O)(=O)c1ccc(C(=O)Nc2ccc(NC(=O)c3[nH]cnc3C(=O)NCCN3CCCCC3)cc2)c(Cl)c1 [Example 53, N^5-(4-{[2-chloro-4-(methylsulfonyl)benzoyl]amino}phenyl)-N^4-[2-(piperidin-1-yl)ethyl]-1H-imidazole-4,5-dicarboxamide]	
> 10000	12000	CNC(=O)c1nc[nH]c1C(=O)Nc1ccc(NC(=O)c2ccccc2)cc1 [Example 21, N^5-[4-(benzoylamino)phenyl]-N^4-methyl-1H-imidazole-4,5-dicarboxamide]	12000
1800	4400	CN(C)CCNC(=O)c1nc[nH]c1C(=O)Nc1ccc(NC(=O)c2ccc(F)cc2)c(F)c1 [Example 77, N^4-[2-(dimethylamino)ethyl]-N^5-{3-fluoro-4-[(4-fluorobenzoyl)amino]phenyl}-1H-imidazole-4,5-dicarboxamide]	
90	700	CCN1CCC[C@@H]1CNC(=O)c1nc[nH]c1C(=O)Nc1ccc(NC(=O)c2ccc(F)cc2Cl)cc1 [Example 413, N^5-{4-[(2-chloro-4-fluorobenzoyl)amino]phenyl}-N^4-{[(2R)-1-ethylpyrrolidin-2-yl]methyl}-1H-imidazole-4,5-dicarboxamide]	
70	1200	O=C(Nc1ccc(NC(=O)c2nc[nH]c2C(=O)N[C@H]2CCNC2)cc1)c1ccc(F)cc1Cl [Example 281, N^4-{4-[(2-chloro-4-fluorobenzoyl)amino]phenyl}-N^5-[(3S)-pyrrolidin-3-yl]-1H-imidazole-4,5-dicarboxamide]	
> 10000	27000	CNC(=O)c1nc[nH]c1C(=O)Nc1ccc(NC(=O)c2ccc(C)c(Cl)c2)cc1 [Example 344, N^5-{4-[(3-chloro-4-methylbenzoyl)amino]phenyl}-N^4-methyl-1H-imidazole-4,5-dicarboxamide]	

SMILES	IC50 (TNKS2) [nM]	IC50 [1, 2] [nM]	IC50 [1, 3] [nM]
O=C(Nc1ccc(NC(=O)c2[nH]cnc2C(=O)NCCN2CCCCC2)cc1)c1ccc(F)cc1Cl [Example 32, N^4-{4-[(2-chloro-4-fluorobenzoyl)amino]phenyl}-N^5-[2-(piperidin-1-yl)ethyl]-1H-imidazole-4,5-dicarboxamide]	0.3	20	20

— patent US9884063B2, “Amido-substituted azole compounds” (Bayer Pharma Aktiengesellschaft, priority 2014, dated 2018)
